In patent publication US5384317A, “Bridged biphenyl carbapenem compounds, compositions containing such compounds and methods of use” (Merck & Co., Inc., priority 1993, dated 1995):
In brackets after ≈: the same amount, converted by molar mass.

How the values were obtained:
[1] = tested on: MRSA strain MB #5180; assay: antibiotic disc-diffusion assay of MRSA activity, relative to imipenem; assay type: cell-based, methicillin resistant Staphylococcus aureus; conditions: multiples of the relative potency of imipenem
Method: In vitro antibacterial activity determined in accordance with the protocol set forth below is predictive of in vivo activity, when the compounds are administered to a mammal infected with a susceptible bacterial organism.
(§1) Minimum inhibitory concentrations for different compounds may be calculated using the procedures set forth in Lorian, V. (ed.) Antibiotics in Laboratory Medicine (3rd ed.) pages 30-35 if desired. However, by comparing disc sensitivities to a known compound, e.g., imipenem, this calculation is not required to recognize MRSA/MRCNS activity.
Assay Used to Test the Activities of Carbapenems Against Methicillin-Resistant Staphylococci: The assay is an antibiotic disc-diffusion assay modeled after the method described by Bauer and Kirby, et al.1, with the following modifications and clarifications:
Agar: This assay employs an agar depth of 2 mm instead of 4 mm.
Zone Readings: The inner, completely clear zone is measured.
Culture Storage: Frozen vials of strains are stored at -80° C. Working slants are prepared from frozen vials and are used for 1 month to 6 weeks. For methicillin-resistant strains the slant medium is Muleller Hinton Agar; for control strains the slant medium is Brain Heart Infusion Agar. After inoculation from frozen vials, methicillin-resistant slant cultures are incubated at 28° C. until good growth is achieved (approximately 20 hours); slants of control strains are incubated at 37° C. for 16-18 hours.
Preparation of Methicillin-Resistant Inocula for Assay: For methicillin-resistant strains, inoculate 0.5 ml of BHIB heavily (to achieve approximately 1×10^8-109 cfu/ml) from the slant culture by using a sterile cotton tipped applicator. […]
Methicillin-resistant Staphylococci: With a cotton tipped applicator, swab enough growth off the grown plates into 1 ml BHIB to achieve a visual concentration of approximately 1×10^9 cfu/ml. […] Add measured quantities of PBS to dilutions to achieve % T @ 1% above or below the % T measurement for the control cultures. […]

[2] = tested on: MRSA strain MB #5180; assay: minimum inhibitory concentration; assay type: cell-based, methicillin resistant Staphylococcus aureus; conditions: Staphylococcus aureus, imipenem (standard)
Method: as §1
All compounds below were tested against MRSA strain MB #5180. […]

MIC [2] [µg/mL] | Structure (SMILES) | MRSA Activity [1]
 | C[C@@H](O)[C@H]1C(=O)N2C(C(=O)O)=C3c4cccc(-c5ccccc5)c4CC[C@@H]3[C@H]12 | 1.9
 | C[C@@H](O)[C@H]1C(=O)N2C(C(=O)O)=C3c4ccccc4CC[C@@H]3[C@H]12 | 1.3
 | C[C@@H](O)[C@H]1C(=O)N2C(C(=O)O)=C3c4cc(-c5ccccc5)ccc4CC[C@@H]3[C@H]12 | 18.0
46 (≈ 154 µM) | C[C@@H](O)[C@H]1C(=O)N2C(C(=O)O)=C(SCCN=CN)C[C@H]12 [imipenem] | 
